Test results published in patent publication EP4417602A1, “SUBSTITUTED PYRAZOLE CARBOXAMIDES, SALTS THEREOF AND THEIR USE AS HERBICIDALLY ACTIVE SUBSTANCES” (Bayer AG, priority 2023, dated 2024).

Assays:
[1] = test system: DIGSA; test: A. Herbicidal pre-emergence action on harmful plants (Tables A); type: in vivo, Digitaria sanguinalis
Procedure, shortened: (§1)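 Values are visual percent damage relative to untreated controls, scored ca. 3 weeks after the compound was sprayed on the covering soil of sown pots (sandy loam) at rates up to 1280 g/ha, formulated as WP or EC with 0.5% additive.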

[2] = test system: STEME; test: as above; type: in vivo, Stellaria media; details: visual grading after ca. 3 weeks vs untreated controls, 100% = plants have died off, 0% = as control plants
Procedure, shortened: as §1

[3] = test system: ECHCG; test: B. Herbicidal post-emergence action on harmful plants (Tables B); type: in vivo, Echinochloa crus-galli
Procedure, shortened: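 Greenhouse weeds grown in sandy loam were sprayed post-emergence at the one-leaf stage, 2-3 weeks after sowing. Compounds were applied as WP or EC in water with 0.5% additive at 600 L/ha, at 1280 g/ha or below. Visual damage was rated after about 3 weeks versus untreated plants (0-100%).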

[4] = test system: MATIN; test: A. Herbicidal pre-emergence action on harmful plants (Tables A); type: in vivo, Matricaria inodora; details: visual grading after ca. 3 weeks vs untreated controls, 100% = plants have died off, 0% = as control plants
Procedure, shortened: as §1

[5] = test system: ALOMY; test: C. Herbicidal pre-emergence action, weed and crop plants (Tables C); type: in vivo, Alopecurus myosuroides
Excerpt: (§2) Seeds of mono- and dicotyledonous weed plants and crop plants were sown, in plastic or organic planting pots, in sandy loam and covered with soil. The compounds according to the invention, formulated in the form of wettable powders (WP) or as emulsifiable concentrates (EC), were applied to the surface of the covering soil as aqueous suspension or emulsion, with the addition of 0.5% of an additive, at an application rate of 6001 of water/ha (converted). Following treatment, the pots were placed in a greenhouse and kept under optimum growth conditions for the test plants. The visual grading of the damage to the test plants was carried out after ca. 3 weeks in comparison to untreated controls (herbicidal effect in percent (%): 100% effect = plants have died off, 0% effect = as control plants). Tables C1 to C12 below show the effects of selected compounds of the general formula (I) according to table 1 on various harmful plants and an application rate corresponding to 320 g/ha or below obtained by the experimental procedure mentioned above. Table C1: pre-emergence activity at 320g/ha against KCHSC in %

[6] = test system: LOLRI; test: as above; type: in vivo, Lolium rigidum; details: application rate 320 g/ha; Table C7a
Excerpt: as §2

[7] = test system: ECHCG; test: A. Herbicidal pre-emergence action on harmful plants (Tables A); type: in vivo, Echinochloa crus-galli; details: visual grading after ca. 3 weeks vs untreated controls, 100% = plants have died off, 0% = as control plants
Procedure, shortened: as §1

[8] = test system: GLXMA; test: F. Post-emergence effects on crop plants (Tables F); type: in vivo, Glycine max; details: application rate 320 g/ha, crop plant
Procedure, shortened: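 Plants were grown in sandy loam in a greenhouse and sprayed post-emergence at the single-leaf stage, 2–3 weeks after sowing. Visual damage was scored after ca. 3 weeks against untreated controls (0% = as control, 100% = dead).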

[9] = test system: LOLRI; test: A. Herbicidal pre-emergence action on harmful plants (Tables A); type: in vivo, Lolium rigidum; details: visual grading after ca. 3 weeks vs untreated controls, 100% = plants have died off, 0% = as control plants
Procedure, shortened: as §1

[10] = test system: SETVI; test: C. Herbicidal pre-emergence action, weed and crop plants (Tables C); type: in vivo, Setaria viridis; details: application rate 320 g/ha; Table C10
Excerpt: as §2

[11] = test system: ALOMY; test: A. Herbicidal pre-emergence action on harmful plants (Tables A); type: in vivo, Alopecurus myosuroides
Procedure, shortened: as §1

[12] = test system: POAAN; test: as above; type: in vivo, Poa annua
Procedure, shortened: as §1

[13] = application rate 320 g/ha, Table A12b
[14] = application rate 1280 g/ha, Table A12a
[15] = application rate 1280 g/ha, Table B2a
[16] = application rate 80 g/ha, Table C2b
[17] = application rate 320 g/ha, Table C2a
[18] = application rate 320 g/ha, Table A9b
[19] = application rate 1280 g/ha, Table A9a
[20] = application rate 80 g/ha, Table A7c
[21] = application rate 320 g/ha, Table A7b
[22] = application rate 1280 g/ha, visual grading after ca. 3 weeks vs untreated controls, 100% = plants have died off, 0% = as control plants

| Compound | pre-emergence activity against DIGSA [1, 13] | pre-emergence activity against DIGSA [1, 14] | pre-emergence activity against STEME ([2]; application rate 320 g/ha) | pre-emergence activity against STEME ([2]; application rate 1280 g/ha) | post-emergence activity against ECHCG [3, 15] | pre-emergence activity against MATIN ([4]; application rate 1280 g/ha) | pre-emergence activity against ALOMY [5, 16] | pre-emergence activity against ALOMY [5, 17] | pre-emergence activity against LOLRI [6] | pre-emergence activity against ECHCG ([7]; application rate 80 g/ha) | pre-emergence activity against ECHCG ([7]; application rate 320 g/ha) | pre-emergence activity against ECHCG ([7]; application rate 1280 g/ha) | post-emergence activity against GLXMA in % [8] | pre-emergence activity against LOLRI ([9]; application rate 80 g/ha) | pre-emergence activity against LOLRI ([9]; application rate 320 g/ha) | pre-emergence activity against LOLRI ([9]; application rate 1280 g/ha) | pre-emergence activity against SETVI [10] | pre-emergence activity against ALOMY [11, 18] | pre-emergence activity against ALOMY [11, 19] | pre-emergence activity against POAAN [12, 20] | further results |
| --- | --- | --- | --- | --- | --- | --- | --- | --- | --- | --- | --- | --- | --- | --- | --- | --- | --- | --- | --- | --- | --- |
| COCc1nn(C)cc1C(=O)N1CCCC1Cc1ccccc1F (single isomer, unassigned) [Example I-003] | 100% | 100% | 90% | 90% | 90% | 90% | 90% | 100% | 90% | 100% | 100% | 100% | 10% | 100% | 100% | 100% | 80% | 100% | 100% | 100% | pre-emergence activity against DIGSA ([1]; application rate 80 g/ha, Table A12c): 100%; pre-emergence activity against STEME ([2]; application rate 80 g/ha): 90%; post-emergence activity against ECHCG ([3]; application rate 320 g/ha, Table B2b): 90%; pre-emergence activity against MATIN ([4]; application rate 320 g/ha): 90%; pre-emergence activity against POAAN [12, 21]: 100%; pre-emergence activity against POAAN [12, 22]: 100% |
| CNC(=O)n1cc(C(=O)N2CCCC2Cc2ccccc2F)c(COC)n1 (racemic) [Example I-051] | 90% | 90% | 90% | 90% | 90% | 90% | 80% | 90% | 90% | 90% | 90% | 90% | 10% | 100% | 100% | 100% | 80% | 90% | 90% | 90% | pre-emergence activity against POAAN [12, 21]: 100%; pre-emergence activity against POAAN [12, 22]: 100% |
